# Test results published in patent US12447170B2, “Use of maribavir in treatment regimens” (priority 2021, dated 2025).
# “Also recorded” adds a separate entry of the source.
# How the values were obtained:
# Type in all cases: in vitro ADME
# [1] = target: T1, CYP2C8 (Homo sapiens, UniProt P10632); experiment: Time-dependent CYP inhibition (IC50 shift, 30 minute pre-incubation with HLM +/- NADPH); parameters: from tissue; details: up to 100 μM
# T1 sequence (P10632 1-490): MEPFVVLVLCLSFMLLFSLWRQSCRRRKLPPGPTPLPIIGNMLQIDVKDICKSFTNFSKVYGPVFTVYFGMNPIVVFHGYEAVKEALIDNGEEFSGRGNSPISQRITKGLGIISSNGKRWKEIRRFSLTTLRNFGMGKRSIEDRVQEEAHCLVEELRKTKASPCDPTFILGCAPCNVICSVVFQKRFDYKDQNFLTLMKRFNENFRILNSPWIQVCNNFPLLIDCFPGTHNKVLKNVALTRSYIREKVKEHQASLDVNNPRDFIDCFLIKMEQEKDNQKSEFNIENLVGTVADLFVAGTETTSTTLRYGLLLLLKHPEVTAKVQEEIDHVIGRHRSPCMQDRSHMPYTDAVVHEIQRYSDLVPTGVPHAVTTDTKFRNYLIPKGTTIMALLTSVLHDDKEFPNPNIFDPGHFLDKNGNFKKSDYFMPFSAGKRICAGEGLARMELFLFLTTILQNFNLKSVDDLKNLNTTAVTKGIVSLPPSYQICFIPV
# Method: (§1) Time-dependent inhibition (TDI) potentials for various CYP enzymes were evaluated by a 30 minute pre-incubation of maribavir with HLM in the presence and absence of nicotinamide-adenine dinucleotide […] (NADPH) followed by a CYP enzyme activity assay.
# [2] = target: T2, CYP2C9 (Homo sapiens, UniProt P11712); experiment: as above; parameters: from tissue; details: up to 100 μM
# T2 sequence (P11712 whole entry): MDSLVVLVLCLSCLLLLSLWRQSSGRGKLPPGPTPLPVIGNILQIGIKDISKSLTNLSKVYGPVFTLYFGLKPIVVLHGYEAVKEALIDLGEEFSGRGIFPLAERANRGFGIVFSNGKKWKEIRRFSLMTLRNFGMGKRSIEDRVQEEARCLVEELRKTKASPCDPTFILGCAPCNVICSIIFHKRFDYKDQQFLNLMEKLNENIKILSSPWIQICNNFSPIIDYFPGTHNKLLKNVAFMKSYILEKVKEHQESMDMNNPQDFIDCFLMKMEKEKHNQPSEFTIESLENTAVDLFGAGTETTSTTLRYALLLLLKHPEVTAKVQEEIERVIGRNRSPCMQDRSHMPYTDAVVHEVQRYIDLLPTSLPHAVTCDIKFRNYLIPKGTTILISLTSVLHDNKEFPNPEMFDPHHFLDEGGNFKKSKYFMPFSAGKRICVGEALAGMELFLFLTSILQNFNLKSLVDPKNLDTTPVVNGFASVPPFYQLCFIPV
# Method: as §1
# [3] = target: T3, CYP1A2 (Homo sapiens, UniProt P05177); experiment: as above; parameters: from tissue; details: up to 100 μM
# T3 sequence (P05177 1-516): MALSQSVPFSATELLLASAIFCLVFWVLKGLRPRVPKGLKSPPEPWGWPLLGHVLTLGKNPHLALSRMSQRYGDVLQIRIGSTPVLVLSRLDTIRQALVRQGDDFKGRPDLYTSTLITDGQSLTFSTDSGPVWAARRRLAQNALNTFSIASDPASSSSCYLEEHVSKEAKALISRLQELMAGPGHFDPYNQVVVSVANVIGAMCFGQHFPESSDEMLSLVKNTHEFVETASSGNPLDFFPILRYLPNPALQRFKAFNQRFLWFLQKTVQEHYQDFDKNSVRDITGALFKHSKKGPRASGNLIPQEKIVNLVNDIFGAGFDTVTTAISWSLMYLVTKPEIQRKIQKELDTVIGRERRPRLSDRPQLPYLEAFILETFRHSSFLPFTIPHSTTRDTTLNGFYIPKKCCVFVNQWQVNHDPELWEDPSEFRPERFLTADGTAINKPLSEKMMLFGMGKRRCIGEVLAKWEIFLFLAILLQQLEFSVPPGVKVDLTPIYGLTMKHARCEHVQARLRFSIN
# Method: as §1
# [4] = target: T4, CYP2D6 (Homo sapiens, UniProt P10635); experiment: as above; parameters: from tissue; details: up to 100 μM
# T4 sequence (P10635 whole entry): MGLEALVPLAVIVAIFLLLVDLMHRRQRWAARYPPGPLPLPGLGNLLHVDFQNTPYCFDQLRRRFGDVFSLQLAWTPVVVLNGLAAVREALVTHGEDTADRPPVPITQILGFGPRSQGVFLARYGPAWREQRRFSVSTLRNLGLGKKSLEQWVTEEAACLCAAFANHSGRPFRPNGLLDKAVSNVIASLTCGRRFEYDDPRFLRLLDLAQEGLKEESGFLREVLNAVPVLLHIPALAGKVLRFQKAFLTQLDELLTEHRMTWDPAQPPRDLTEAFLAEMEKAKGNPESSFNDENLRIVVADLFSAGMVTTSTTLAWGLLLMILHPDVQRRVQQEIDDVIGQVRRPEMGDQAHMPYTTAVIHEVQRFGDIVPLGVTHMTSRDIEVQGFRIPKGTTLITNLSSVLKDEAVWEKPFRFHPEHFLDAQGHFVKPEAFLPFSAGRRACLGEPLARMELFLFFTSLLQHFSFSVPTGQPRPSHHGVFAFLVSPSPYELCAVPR
# Method: as §1
# [5] = target: T5, CYP2C19 (Homo sapiens, UniProt P33261); experiment: as above; parameters: from tissue; details: up to 100 μM
# T5 sequence (P33261 whole entry): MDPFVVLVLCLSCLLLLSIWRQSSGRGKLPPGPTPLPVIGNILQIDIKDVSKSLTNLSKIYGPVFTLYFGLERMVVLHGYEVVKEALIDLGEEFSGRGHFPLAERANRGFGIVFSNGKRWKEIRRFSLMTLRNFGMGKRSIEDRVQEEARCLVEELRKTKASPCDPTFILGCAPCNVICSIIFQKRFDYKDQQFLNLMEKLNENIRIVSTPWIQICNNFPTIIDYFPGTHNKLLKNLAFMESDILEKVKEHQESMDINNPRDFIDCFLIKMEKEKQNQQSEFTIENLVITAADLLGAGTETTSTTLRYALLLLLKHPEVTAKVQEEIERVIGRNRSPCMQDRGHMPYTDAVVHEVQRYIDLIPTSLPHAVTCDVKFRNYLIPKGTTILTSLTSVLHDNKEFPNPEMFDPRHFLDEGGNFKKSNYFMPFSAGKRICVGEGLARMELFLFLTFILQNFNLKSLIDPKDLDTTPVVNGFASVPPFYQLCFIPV
# Method: as §1
# [6] = target: T1, CYP2C8; experiment: Reversible CYP inhibition in human liver microsomes (HLM); parameters: from tissue; host or cells: human liver microsomes; details: up to 100 μM
# Method: (§2) HLM were used to evaluate maribavir's half maximal inhibitory concentration (IC50) on inhibition of activities of nine CYP isoforms. Probe substrates were phenacetin (CYP1A2), coumarin (CYP2A6), bupropion (CYP2B6), paclitaxel (CYP2C8), tolbutamide (CYP2C9), (S)-mephenytoin (CYP2C19), dextromethorphan (CYP2D6), clorzoxazone (CYP2E1), and midazolam and testosterone (CYP3A4).
# (§3) CYP activities with 0, 0.1, 0.3, 1, 3, 10, 30, and 100 μM of maribavir were evaluated.
# [7] = target: T2, CYP2C9; experiment: as above; parameters: from tissue; host or cells: human liver microsomes
# Method: as §2, §3
# [8] = target: T3, CYP1A2; experiment: as above; parameters: from tissue; host or cells: human liver microsomes
# Method: as §2, §3
# [9] = target: T4, CYP2D6; experiment: as above; parameters: from tissue; host or cells: human liver microsomes; details: up to 100 μM
# Method: as §2, §3
# [10] = target: T5, CYP2C19; experiment: as above; parameters: from tissue; host or cells: human liver microsomes
# Method: as §2, §3
compound,measurement,setting,value
"CC(C)Nc1nc2cc(Cl)c(Cl)cc2n1[C@H]1O[C@@H](CO)[C@H](O)[C@@H]1O [maribavir, (2S,3S,4R,5S)-2-(5,6-dichloro-2-(isopropylamino)-1H-benzo[d]imidazol-1-yl)-5-(hydroxymethyl)tetrahydrofuran-3,4-diol]",time-dependent inhibition (TDI) of CYP2C8,[1],not a time-dependent inhibitor; also recorded: unlikely a TDI
same,time-dependent inhibition (TDI) of CYP2C9,[2],not a time-dependent inhibitor; also recorded: unlikely a TDI
same,time-dependent inhibition (TDI) of CYP1A2,[3],not a time-dependent inhibitor; also recorded: unlikely a TDI
same,time-dependent inhibition (TDI) of CYP2D6,[4],not a time-dependent inhibitor; also recorded: unlikely a TDI
same,time-dependent inhibition (TDI) of CYP2C19,[5],not a time-dependent inhibitor; also recorded: unlikely a TDI
same,reversible inhibition of CYP2C8,[6],not a reversible inhibitor; also recorded: no significant inhibition
same,IC50,[7],18 µM
same,IC50,[8],40 µM
same,reversible inhibition of CYP2D6,[9],not a reversible inhibitor; also recorded: no significant inhibition
same,IC50,[10],35 µM
